Results as given in patent US6733986B1, “Method and agent for determining a deaminase enzymatic activity” (Bio Merieux, priority 1997, dated 2004).

How the values were obtained:
[1] = tested on: strains which belong to the group Proteus; test: Example of a gelled medium with O-toluene-sulfonyl-L-tyrosine and iron citrate; type: cell-based; details: 0.5 g/l with iron citrate at 0.5 g/l in gelled medium; after 18 to 24 hours of incubation
Excerpt: As an example of a gelled medium, O-toluene-sulfonyl-L-tyrosine at 0.5 g/l and iron citrate at 0.5 g/l can be incorporated into the culture medium, in the following medium:
this medium being able to be inoculated with various Gram-negative or Gram-positive microorganisms.

[2] = tested on: bacteria belonging to the group Proteus; test: Differentiation of the group Proteus from other bacteria in liquid medium (Example 7); type: cell-based; details: after 48 hours
Description: Two media were prepared according to the usual techniques. […] The composition of the Media III and IV for one liter of final medium is as follows: [table] The pH of the media was adjusted to approximately 7.2. In Medium III, the detection agent for the enzymatic activity such as deaminase activity which was used is the natural amino acid L-histidine, at 1.5 g/l; in Medium IV, the detection agent for the enzymatic activity such as deaminase activity which is used is of [sic] N-toluene-sulfonyl-L-histidine, at 0.5 g/l. The media were distributed into test tubes, in a sterile manner. These two media were inoculated with the 12 bacterial strains described in Example 6. The tubes were incubated for 48 hours at 37° C., and were examined visually after 48 hours according to the following interpretation: the browning of the tube reflects the presence of an enzymatic activity such as deaminase activity, and thus of a bacterium of the group Proteus, the absence of browning signifies the absence of bacteria of the group Proteus.

Cc1ccc(S(=O)(=O)Oc2ccc(C[C@H](N)C(=O)O)cc2)cc1 [Example 2, 4-O-tosyl-L-tyrosine]
colour of colonies of strains of the group Proteus [1]: brown colonies

N[C@@H](Cc1c[nH]cn1)C(=O)O [L-histidine]
differentiation of bacteria of the group Proteus from those not belonging thereto [2]: high sensitivity and specificity
